Measured values taken from paper PMC11199699 (Scientific Reports, 2024).

What was measured:
[1] = test system: T1, PSMK_RS04265 (type 3 L-KDFDH); assay: spectrophotometric NADH formation at […] nm, Lineweaver-Burk; type: biochemical, Phycisphaera mikurensis; details: 1.5 mM NAD+, 50 mM Tris-HCl pH 8.0, 30 °C
T1 construct: pQE-80L, N-terminal (His)6-tag, expressed in E. coli, Ni-NTA

[2] = test system: T2, PEH01S_RS21285 (type 2 L-KDFDH); assay: as above; type: biochemical, Paenibacillus ehimensis; details: 1.5 mM NAD+, 50 mM Tris-HCl pH 8.0, 30 °C
T2 construct: pQE-80L, N-terminal (His)6-tag, expressed in E. coli, Ni-NTA

Km [1]: 6.08 ± 0.15 mM
Km [2]: 0.529 ± 0.021 mM
SMILES: C[C@H](O)[C@@H](O)CC(=O)C(=O)O [L-KDF]
